Columns and labels:
[1] = biological target: T1, Human FXIIa (Homo sapiens, UniProt P00748); experiment: Factor XIIa (FXIIa) inhibitory activity, chromogenic substrate assay; type: biochemical; conditions: Human FXIIa 12.5 nM, Pefachrome XIIa 400 μM, 10 min preincubation
T1 construct: active coagulation factor XII (FXIIa); purchased Enzyme Research Labs
T1 sequence (P00748 373-615 limits assumed): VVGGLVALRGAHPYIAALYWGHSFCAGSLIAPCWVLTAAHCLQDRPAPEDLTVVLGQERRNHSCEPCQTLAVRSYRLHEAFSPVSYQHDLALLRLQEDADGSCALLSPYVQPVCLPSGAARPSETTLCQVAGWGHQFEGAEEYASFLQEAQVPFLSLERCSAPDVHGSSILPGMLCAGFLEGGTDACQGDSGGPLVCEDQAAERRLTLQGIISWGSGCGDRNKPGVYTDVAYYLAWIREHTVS
T1 sequence (P00748 20-372 partner limits assumed): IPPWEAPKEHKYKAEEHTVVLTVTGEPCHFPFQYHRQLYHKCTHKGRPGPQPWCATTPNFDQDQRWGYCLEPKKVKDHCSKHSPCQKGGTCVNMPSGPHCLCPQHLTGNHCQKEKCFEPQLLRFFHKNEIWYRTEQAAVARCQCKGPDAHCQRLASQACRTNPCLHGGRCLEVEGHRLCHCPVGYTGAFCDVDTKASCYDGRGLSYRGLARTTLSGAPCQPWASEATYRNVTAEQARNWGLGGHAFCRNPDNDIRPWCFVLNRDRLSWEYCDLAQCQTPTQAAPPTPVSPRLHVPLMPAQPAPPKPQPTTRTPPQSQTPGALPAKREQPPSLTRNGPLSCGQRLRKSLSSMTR
Procedure, shortened: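 Buffer was 0.5× HBSS with 25 mM HEPES pH 7.4 and 0.5× TBS-Tween 0.05%. Enzyme and compound (about 1–100 μM) were preincubated 10 min at room temperature, then Pefachrome XIIa was added at 400 μM final. Substrate cleavage was followed as the rate of A405 change at 37 °C.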

[2] = biological target: T2, Human alpha-thrombin (Homo sapiens, UniProt P00734); experiment: Thrombin counterscreen for selectivity, fluorogenic substrate assay; type: biochemical; conditions: Human alpha-thrombin 12.5 nM, Boc-Val-Pro-Arg-AMC 20 μM, 10 min preincubation
T2 construct: Human alpha-thrombin (Enzyme Research Labs); purchased Enzyme Research Labs
Experimental: Counterscreens for Selectivity:
In a 96-well white opaque plate, 80 μl of assay buffer was added to each well. Test compounds were added, and serially diluted as above, to generate a concentration range of approximately 1-100 μM. […] 80 μl of this enzyme solution was added to the assay wells. The enzyme/compound mixtures were incubated for 10 minutes at room temperature. Fluorogenic substrate (Boc-Val-Pro-Arg-7-amido-4-methylcoumarin; Sigma) was added to assay wells at a final concentration of 20 μM. The assay plate was spun for 1 minute at 1500 g and then read at 37° C. in a SpectraMax M2 plate reader (λex=380 nm and λem=460 nm). Activity was quantified as the rate of change in fluorescence, which corresponds to the rate of substrate cleavage.

| Compound | IC50 [1] | IC50 [2] |
| --- | --- | --- |
| CCCn1ccc2c(C(=O)n3nc4c(c3N)CCCC4)cccc21 [Example 36, (3-amino-4,5,6,7-tetrahydroindazol-2-yl)(1-propyl-1H-indol-4-yl)methanone] | 0.2 µM | > 80 µM |
| Nc1c2c(nn1C(=O)[C@H]1CCCc3[nH]c(Cl)cc31)CC[C@@H](O)C2 (single isomer, unassigned) [Example 125] | 1.4 µM | > 100 µM |
| Nc1c2c(nn1C(=O)[C@@H]1CCNc3ccccc31)CC[C@@H](O)C2 (single isomer, unassigned) [Example 166, ((5R*)-3-amino-5-hydroxy-4,5,6,7-tetrahydroindazol-2-yl)((4R*)-1,2,3,4-tetrahydroquinolin-4-yl)methanone] | – | > 100 µM |
| Nc1c2c(nn1C(=O)[C@H]1CCNc3ccc(F)cc31)CC[C@@H](F)C2 (single isomer, unassigned) [Example 137, ((5R*)-3-amino-5-fluoro-4,5,6,7-tetrahydroindazol-2-yl)((4S*)-6-fluoro-1,2,3,4-tetrahydroquinolin-4-yl)methanone] | 0.06 µM | 29 µM |
| Cc1cc2c(C(=O)n3nc4c(c3N)CCCC4)cccc2n1C [Example 22, (3-Amino-4,5,6,7-tetrahydroindazol-2-yl)(1,2-dimethyl-1H-indol-4-yl)methanone] | 0.04 µM | 20 µM |
| Nc1c2c(nn1C(=O)[C@H]1CCNc3ccccc31)CC[C@@H](O)C2 (single isomer, unassigned) [Example 165, ((5R*)-3-amino-5-hydroxy-4,5,6,7-tetrahydroindazol-2-yl)((4S*)-1,2,3,4-tetrahydroquinolin-4-yl)methanone] | 0.35 µM | > 80 µM |
| CC(C)n1ccc2c(C(=O)n3nc4c(c3N)CCCC4)cccc21 [Example 29, (3-amino-4,5,6,7-tetrahydroindazol-2-yl)(1-isopropyl-1H-indol-4-yl)methanone] | 0.15 µM | > 50 µM |
| CC(C)c1cc2c(C(=O)n3nc4c(c3N)CCCC4)cccc2[nH]1 (single isomer, unassigned) [Example 51, (3-amino-4,5,6,7-tetrahydroindazol-2-yl)(2-isopropyl-1H-indol-4-yl)methanone] | 0.4 µM | > 50 µM |
| CCn1c(C)cc2c(C(=O)n3nc4c(c3N)CCCC4)cccc21 [Example 38, (3-amino-4,5,6,7-tetrahydroindazol-2-yl)(1-ethyl-2-methyl-1H-indol-4-yl)methanone] | 0.04 µM | 44 µM |
| Nc1c2c(nn1C(=O)c1cccc3[nH]c(C4CC4)cc13)CCCC2 (single isomer, unassigned) [Example 53, (3-amino-4,5,6,7-tetrahydroindazol-2-yl)(2-cyclopropyl-1H-indol-4-yl)methanone] | 0.02 µM | 28 µM |
| Cc1cc2c([nH]1)CCCC2C(=O)n1nc2c(c1N)CCCC2 (stereo not shown) [Example 81, (3-amino-4,5,6,7-tetrahydroindazol-2-yl)(2-methyl-4,5,6,7-tetrahydro-1H-indol-4-yl)methanone] | 0.3 µM | > 50 µM |
| Nc1c2c(nn1C(=O)[C@H]1CCNc3ccc(Cl)cc31)CC[C@H](O)C2 (single isomer, unassigned) [Example 143, ((5S*)-3-amino-5-hydroxy-4,5,6,7-tetrahydroindazol-2-yl)((4S*)-6-chloro-1,2,3,4-tetrahydroquinolin-4-yl)methanone] | 1.3 µM | > 80 µM |
| Cn1ccc2c(C(=O)n3nc4c(c3N)CCCC4)cccc21 (single isomer, unassigned) [Example 7, (3-Amino-4,5,6,7-tetrahydroindazol-2-yl)(1-methyl-1H-indol-4-yl)methanone] | 0.15 µM | 30 µM |
| Nc1c2c(nn1C(=O)[C@H]1CCNc3ccc(F)cc31)CC[C@H](N)C2 (stereo in doubt) [Example 192, ((5S*)-3,5-diamino-4,5,6,7-tetrahydroindazol-2-yl)((4S*)-6-fluoro-1,2,3,4-tetrahydroquinolin-4-yl)methanone] | 0.08 µM | > 90 µM |
| Cc1cc2c(C(=O)N3N=C(N)C4CCCCC43)cccc2[nH]1 (stereo not shown) [Example 10, (3-amino-3a,4,5,6,7,7a-hexahydroindazol-1-yl)(2-methyl-1H-indol-4-yl)methanone] | 90 µM | > 100 µM |
| Nc1c2c(nn1C(=O)C1CCNc3ccc(F)cc31)CCC(NC(=O)OCc1ccccc1)C2 (single isomer, unassigned) [Example 190, Benzyl N-[(5S*)-3-amino-2-[(6-fluoro-1,2,3,4-tetrahydroquinolin-4-yl)carbonyl]-4,5,6,7-tetrahydro-2H-indazol-5-yl]carbamate] | 0.4 µM | > 60 µM |
| CCC(C)n1ccc2c(C(=O)n3nc4c(c3N)CCCC4)cccc21 (stereo not shown) [Example 37, (3-amino-4,5,6,7-tetrahydroindazol-2-yl)(1-sec-butyl-1H-indol-4-yl)methanone] | 2.5 µM | > 75 µM |
| COC1CCc2c(c(N)nn2C(=O)c2cccc3[nH]c(C)cc23)C1 (stereo not shown) [Example 120, (3-amino-5-methoxy-4,5,6,7-tetrahydro-2H-indazol-1-yl)(2-methyl-1H-indol-4-yl)methanone] | 10 µM | > 80 µM |
| CC(C)(C)c1cccc(C(=O)n2nc3c(c2N)CCCC3)c1 [Example 31, (3-amino-4,5,6,7-tetrahydroindazol-2-yl)(3-tert-butylphenyl)methanone] | 0.15 µM | > 50 µM |
| Nc1c2c(nn1C(=O)C1OCCc3ccccc31)CCCC2 (single isomer, unassigned) [Example 13, (3-Amino-4,5,6,7-tetrahydroindazol-2-yl)(isochroman-1-yl)methanone] | 5.6 µM | 77 µM |

Other lines, results leading:

| IC50 [1] | IC50 [2] | Compound |
| --- | --- | --- |
| > 50 µM | > 50 µM | Cn1ccc2c(C(=O)n3nc(N)c4c3CCCC4)cccc21 (single isomer, unassigned) [Example 8, (3-amino-4,5,6,7-tetrahydroindazol-1-yl)(1-methyl-1H-indol-4-yl)methanone] |
| > 100 µM | > 100 µM | Nc1nn(C(=O)C2OCCc3ccccc32)c2c1CCCC2 (single isomer, unassigned) [Example 15, (3-amino-4,5,6,7-tetrahydroindazol-1-yl)(isochroman-1-yl)methanone] |
| 65 µM | > 100 µM | Nc1nn(C(=O)c2cccc3[nH]c(Br)cc23)c2c1CCCC2 (single isomer, unassigned) [Example 63, (3-amino-4,5,6,7-tetrahydroindazol-1-yl)(2-bromo-1H-indol-4-yl)methanone] |
| 0.02 µM | 13 µM | C=Cc1cc2c(C(=O)n3nc4c(c3N)CCCC4)cccc2[nH]1 (single isomer, unassigned) [Example 70, (3-amino-4,5,6,7-tetrahydroindazol-2-yl)(2-vinyl-1H-indol-4-yl)methanone] |
| > 100 µM | > 100 µM | Cc1cc2c(C(=O)n3nc(N)c4c3CCCC4)cccc2o1 (single isomer, unassigned) [Example 59, (3-amino-4,5,6,7-tetrahydroindazol-1-yl)(2-methylbenzofuran-4-yl)methanone] |
| 65 µM | 45 µM | Cc1nn(C(=O)c2cccc3[nH]ccc23)c2c1CCCC2 (single isomer, unassigned) [Example 4, (1H-indol-4-yl)(3-methyl-4,5,6,7-tetrahydroindazol-1-yl)methanone] |
| – | > 100 µM | Nc1nn(C(=O)c2cccc3c2ccn3-c2ccccc2)c2c1CCCC2 (single isomer, unassigned) [Example 21, (3-amino-4,5,6,7-tetrahydroindazol-1-yl)(1-phenyl-1H-indol-4-yl)methanone] |
| – | 55 µM | C=Cc1cc2c(C(=O)n3nc(N)c4c3CCCC4)cccc2[nH]1 (single isomer, unassigned) [Example 71, (3-amino-4,5,6,7-tetrahydroindazol-1-yl)(2-vinyl-1H-indol-4-yl)methanone] |
| – | > 100 µM | Nc1nn(C(=O)c2c[nH]c3ccccc23)c2c1CCCC2 [Example 155] |
| – | > 80 µM | CN1CCC(C(=O)n2nc(N)c3c2CCCC3)c2ccccc21 (single isomer, unassigned) [Example 26, (3-amino-4,5,6,7-tetrahydroindazol-1-yl)(1-methyl-1,2,3,4-tetrahydroquinolin-4-yl)methanone] |

Source: patent publication US10538512B2, “Aminoacylindazole immunomodulators for treatment of autoimmune diseases” (The Rockefeller University, priority 2016, dated 2020)
